{
  "source": "ChEMBL document CHEMBL4334490",
  "about": "“Natural products as important tyrosine kinase inhibitors” (Eur J Med Chem, 2019)",
  "biological_target": "Epidermal growth factor receptor (Homo sapiens, UniProt P00533)",
  "sequence (P00533 whole entry)": "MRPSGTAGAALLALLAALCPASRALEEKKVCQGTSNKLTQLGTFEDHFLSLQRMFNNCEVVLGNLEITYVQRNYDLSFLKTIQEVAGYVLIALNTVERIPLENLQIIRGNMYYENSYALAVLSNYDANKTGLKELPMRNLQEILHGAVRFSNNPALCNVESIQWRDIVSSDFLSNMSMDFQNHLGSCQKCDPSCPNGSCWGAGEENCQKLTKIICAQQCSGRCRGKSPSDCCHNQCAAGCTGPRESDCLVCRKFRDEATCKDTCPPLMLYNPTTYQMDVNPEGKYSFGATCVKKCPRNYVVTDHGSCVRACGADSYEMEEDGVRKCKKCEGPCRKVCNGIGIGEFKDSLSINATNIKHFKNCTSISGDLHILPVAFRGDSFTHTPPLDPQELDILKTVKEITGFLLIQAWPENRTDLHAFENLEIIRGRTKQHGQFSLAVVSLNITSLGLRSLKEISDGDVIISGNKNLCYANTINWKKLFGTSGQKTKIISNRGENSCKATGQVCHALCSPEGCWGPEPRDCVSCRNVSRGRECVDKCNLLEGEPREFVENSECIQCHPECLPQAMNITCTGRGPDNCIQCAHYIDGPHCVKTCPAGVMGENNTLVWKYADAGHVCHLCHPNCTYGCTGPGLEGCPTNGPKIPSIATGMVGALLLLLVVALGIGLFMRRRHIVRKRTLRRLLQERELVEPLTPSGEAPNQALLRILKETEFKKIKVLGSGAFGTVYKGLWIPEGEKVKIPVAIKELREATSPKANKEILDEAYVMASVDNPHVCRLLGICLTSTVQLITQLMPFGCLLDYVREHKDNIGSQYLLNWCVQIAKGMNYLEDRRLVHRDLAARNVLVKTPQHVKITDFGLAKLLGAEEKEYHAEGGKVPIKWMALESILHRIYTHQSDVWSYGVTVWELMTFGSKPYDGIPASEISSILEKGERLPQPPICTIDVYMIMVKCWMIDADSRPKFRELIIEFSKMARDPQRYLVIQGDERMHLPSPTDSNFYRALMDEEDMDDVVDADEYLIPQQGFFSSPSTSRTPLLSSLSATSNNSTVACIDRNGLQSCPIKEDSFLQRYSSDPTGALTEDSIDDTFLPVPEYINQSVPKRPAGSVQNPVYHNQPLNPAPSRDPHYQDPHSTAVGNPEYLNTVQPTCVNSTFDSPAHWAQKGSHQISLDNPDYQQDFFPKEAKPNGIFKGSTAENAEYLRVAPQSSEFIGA",
  "assay": "Inhibition of EGFR (unknown origin)",
  "data": [
    {"smiles": "N=C1NC(=O)/C(=C2/CCNC(=O)c3[nH]c(Br)c(Br)c32)N1", "values": [
      {"measurement": "IC50", "value": 21.1, "unit": "µM"}
    ]},
    {"smiles": "N=C1NC(=O)/C(=C2/CCNC(=O)c3[nH]cc(Br)c32)N1", "values": [
      {"measurement": "IC50", "value": 18.5, "unit": "µM"}
    ]},
    {"smiles": "COc1ccc(Cc2nc(-c3cc(Br)c(OCCCN(C)C)c(Br)c3)c[nH]c2=O)cc1Br", "note": "[Ma'edamine A]", "values": [
      {"measurement": "IC50", "value": 10.6, "unit": "µM"}
    ]},
    {"smiles": "N=C1N=C(NCCS(=O)(=O)O)/C(=C/C(O)CNC(=O)c2cc(Br)c(Br)[nH]2)N1", "note": "(centres undefined) [TAUROACIDIN A]", "values": [
      {"measurement": "IC50", "value": 37.9, "unit": "µM"}
    ]}
  ]
}
